Laboratory results: BindingDB's records for doi:10.1016/0960-894X(95)00078-8 (1995)
Peptide text beside a SMILES is read from it.

What was measured:
[1] = In vitro ability to displace [125 I]CGRP from Calcitonin gene-related peptide type receptor at 4 degrees Centigrade in rabbit lung
[2] = In vitro ability to displace [125 I]CGRP from Calcitonin gene-related peptide type receptor at 4 degrees Celsius in rabbit porcine c+i

IC50 [1] [µM]	IC50 [2] [µM]	SMILES
0.185	0.995	CC(C)C[C@H](NC(=O)COCCOCCNC(=O)[C@@H](NC(=O)[C@H](CS)NC(=O)[C@@H](NC(=O)[C@H](C)NC(=O)[C@@H](NC(=O)[C@H](CC(=O)O)NC(=O)[C@H](CS)NC(=O)[C@H](C)N)[C@@H](C)O)[C@@H](C)O)C(C)C)C(=O)N[C@@H](CO)C(=O)N[C@@H](CCCNC(=N)N)C(=O)N[C@@H](CO)C(=O)NCC(=O)NCC(=O)N[C@H](C(=O)N[C@H](C(=O)N[C@@H](CCCCN)C(=O)N[C@@H](CC(N)=O)C(=O)N[C@@H](CC(N)=O)C(=O)N[C@@H](Cc1ccccc1)C(=O)N[C@H](C(=O)N1CCC[C@H]1C(=O)N[C@H](C(=O)N[C@@H](CC(N)=O)C(=O)N[C@H](C(=O)NCC(=O)N[C@@H](CO)C(=O)N[C@@H](CCCCN)C(=O)N[C@@H](C)C(=O)N[C@@H](Cc1ccccc1)C(=O)O)C(C)C)[C@@H](C)O)C(C)C)C(C)C)C(C)C
0.004	0.014	CC(C)[C@H](NC(=O)CNC(=O)CNC(=O)[C@H](CO)NC(=O)[C@H](CCCN=C(N)N)NC(=O)[C@@H](NC(=O)[C@H](CCCN=C(N)N)NC(=O)[C@@H](NC(=O)[C@H](Cc1c[nH]cn1)NC(=O)[C@@H](NC(=O)[C@H](CS)NC(=O)[C@@H](NC(=O)[C@H](C)NC(=O)[C@@H](NC(=O)[C@H](CC(=O)O)NC(=O)[C@H](CS)NC(=O)[C@H](C)N)[C@@H](C)O)[C@@H](C)O)C(C)C)C(C)C)C(C)C)C(=O)N[C@H](C(=O)N[C@@H](CCCCN)C(=O)N[C@@H](CC(N)=O)C(=O)N[C@@H](CC(N)=O)C(=O)N[C@@H](Cc1ccccc1)C(=O)N[C@H](C(=O)N1CCC[C@H]1C(=O)N[C@H](C(=O)N[C@@H](CC(N)=O)C(=O)N[C@H](C(=O)NCC(=O)N[C@@H](CO)C(=O)N[C@@H](CCCCN)C(=O)N[C@@H](C)C(=O)N[C@@H](Cc1ccccc1)C(N)=O)C(C)C)[C@@H](C)O)C(C)C)C(C)C (H-ACDTATCVHVRVRSGGVVKNNFVPTNVGSKAF-NH2)
